Results on 8 molecules are retold here after article PMC10733469, “Antiviral activity of chrysin and naringenin against porcine epidemic diarrhea virus infection” (Frontiers in Veterinary Science, 2023).

In series [1] the test system is PEDV DY. Kind of series: Virus titration (TCID50, Reed-Muench), PEDV DY. It counts as cell-based, porcine epidemic diarrhea virus. The following applies: for virus titer vs virus control group: PEDV DY, 24, 36 and 48 hpi, p < 0.01.
Series [2] has as its system PEDV DY. Kind of series: Antiviral activity assay (MTT, virus inhibition rate), PEDV DY. The following applies: Porcine epidemic diarrhea virus, Vero C1008, read-out: IC50 PEDV DY.
Another series is described as follows: Cytotoxicity assay (MTT). It counts as cell-based. The following applies: African green monkey. How it is done: (§1) Then, different concentrations of compounds in DMEM were added to cells and incubated for another 48 h. […] MTT solution (10 μL per well) was added and incubated for another 4 h at 37°C, discarding the native compounds and using dimethyl sulfoxide (DMSO) to dissolve products for 10 min at 37°C. Microplate reader (BioTek, Winooski, VT, United States) was used to measure the 96-well plate at 570 nm, and the cell viability (%) was calculated by OD values ([23]). […] The percentage of relative cell viability was calculated according to the formula: […]%=[…]

Series [3] concerns PEDV. Kind of series: Time-of-addition assay, post-viral entry stage (qPCR, western blot). It counts as cell-based, porcine epidemic diarrhea virus. The following applies: for viral nucleic acid copy numbers vs control group: qPCR, p < 0.05; for expression level of PEDV N protein: western blot, concentration dependent. Background: In qPCR the cycle at which signal appears reflects the starting amount.

Series [4] concerns PEDV. Description: Time-of-addition assay, viral entry stage (qPCR). It counts as cell-based, porcine epidemic diarrhea virus.
The next series relates to mice. The following applies: animal tests; cited from earlier work.
A further series has as its system enterovirus 71. More on the design: method as in PMID 24598537. The following applies: replication of enterovirus 71, by inhibiting 3CLpro protein activity; cited from earlier work.
Series [5] deals with PEDV CV777. Description: Virus titration (TCID50, Reed-Muench), PEDV CV777. It counts as cell-based, porcine epidemic diarrhea virus. The following applies: for virus titer vs virus control group: PEDV CV777, 24, 36 and 48 hpi, p < 0.01.
The test system of series [6] is PEDV. Kind of series: Viral quantification by qPCR at different time points. It counts as cell-based, porcine epidemic diarrhea virus. The following applies: 24 hpi and 48 hpi, p < 0.001.
The subject of series [7] is PEDV. Description: Indirect immunofluorescence assay of viral load. The following applies: Vero E6 cells, 48 h after infection, concentration dependent.
Series [8] deals with PEDV. Kind of series: Time-of-addition assay, prophylactic stage (qPCR, western blot). The following applies: for viral mRNA quantitation: qPCR; for expression level of PEDV N protein: western blot, concentration dependent. It counts as cell-based, porcine epidemic diarrhea virus.
The subject of series [9] is PEDV CV777. Kind of series: Antiviral activity assay (MTT, virus inhibition rate), PEDV CV777. The following applies: Porcine epidemic diarrhea virus, Vero C1008, read-out: IC50 PEDV CV777.
The test system of series [10] is PEDV. Description: Antiviral activity assay, PEDV strain not stated. The following applies: Porcine epidemic diarrhea virus, read-out: IC50 values against PEDV.
Series [11] deals with DENV-2. More on the design: method as in doi:10.1186/1743-422X-8-560. The following applies: 50 μg/mL after virus incubation; cited from earlier work.
For series [12], the system named is human Huh 7 it-1 cell line. More on the design: method as in doi:10.1088/1755-1315/462/1/012033. The following applies: cited from earlier work.
Series [13] has as its system DENV-2. More on the design: method as in doi:10.1088/1755-1315/462/1/012033. The following applies: cited from earlier work.
The test system of a further series is Vero E6 cells. Description: Cytotoxicity assay (MTT). It counts as cell-based. Here is the method: as §1
Where [14] appears, read: Vero E6 cells, MTT, 48 h incubation, read-out: CC50.

In brackets after ≈: the same amount, converted by molar mass. Read-outs that look alike come from different tables or passages of the source.

Regarding `O=c1cc(-c2ccccc2)oc2cc(O)cc(O)c12` [Chrysin, chrysin], the “virus titer vs virus control group” value in the series with PEDV DY [1] and with PEDV CV777 [5] was “significantly lower” throughout. Moreover, the IC50 in the series on PEDV DY [2] was 2.48 ± 0.59 µg/mL (≈ 9.77 µM); in the series with enterovirus 71 it was 24.1 µM; in the series on PEDV CV777 [9], 2.19 ± 2.25 µg/mL (≈ 8.62 µM). The midpoint of cytotoxicity in “Cytotoxicity assay (MTT)”, the CC50 at 48 h, lay at 83.6 ± 2.12 µg/mL (≈ 329 µM). In addition, in the series with PEDV [3], the “viral nucleic acid copy numbers vs control group” value is reported as “significantly lower than those in the control group”. The “expression level of PEDV N protein” value in the series on PEDV [3] and in the series on PEDV [8] was “significantly inhibit” each time. In addition, the “inhibitory effect, nucleic acid copy numbers vs control group” value in the series with PEDV [4] is on record as “did not show significant inhibitory effects”. For the same molecule, in the series on mice, the toxic effects entry is listed as “no toxic effects on mice”. Also, the “virus copy numbers vs control group” value with PEDV [6] (50 μg/mL) is “significantly lower than in the control group”. The “green fluorescence of viral proteins (IFA)” value in the series on PEDV [7] is reported as “diminished to varying extents”. In addition, the “viral mRNA quantitation” value with PEDV [8] (12.5 μg/mL) is reported as 3.87 × 10^6 copies/μL; in the series on PEDV [8] (25 μg/mL) it was 1.78 × 10^6 copies/μL; in the series on PEDV [8] (50 μg/mL) it was 1.19 × 10^6 copies/μL.
Turning to `COC(=O)C1=CO[C@@H](O[C@@H]2O[C@H](CO)[C@@H](O)[C@H](O)[C@H]2O)[C@@H]2C(CO)=CC[C@H]12` [Geniposide, geniposide], the IC50 with PEDV DY [2], with PEDV [10] and with PEDV CV777 [9] was more than 100 µg/mL in each case. For the same molecule, the CC50 at 48 h in “Cytotoxicity assay (MTT)” (setting [14]) was determined as 10.4 ± 2.03 µg/mL (≈ 26.7 µM).
As for `CC1(C)[C@@H](O)CC[C@]2(C)[C@H]3C(=O)C=C4[C@@H]5C[C@@](C)(C(=O)O)CC[C@]5(C)CC[C@@]4(C)[C@]3(C)CC[C@@H]12` [Glycyrrhetinic acid, glycyrrhetinic acid], the IC50 with PEDV DY [2], with PEDV [10] and in the series with PEDV CV777 [9] was more than 100 µg/mL in each case. Also, the CC50 at 48 h in “Cytotoxicity assay (MTT)” turned out to be 17.4 ± 4.61 µg/mL (≈ 37 µM).
For `O=C1C[C@@H](c2ccc(O)cc2)Oc2cc(O)cc(O)c21` [Naringenin, naringenin], the “virus titer vs virus control group” value with PEDV DY [1] and in the series with PEDV CV777 [5] was “significantly lower” in each case. In addition, the IC50 in the series on PEDV DY [2] turned out to be 4.5 ± 2.25 µg/mL (≈ 16.5 µM); with PEDV CV777 [9], 4.39 ± 0.96 µg/mL (≈ 16.1 µM). Also, the CC50 at 48 h in “Cytotoxicity assay (MTT)” (setting [14]) turned out to be 61.9 ± 0.97 µg/mL (≈ 227 µM). Moreover, the “reduction of DENV-2 RNA levels” value with DENV-2 [11] was 50%. Also, the “viral nucleic acid copy numbers vs control group” value in the series with PEDV [3] is recorded as “significantly lower than those in the control group”. Also, the “expression level of PEDV N protein” value in the series on PEDV [3] and in the series on PEDV [8] was “significantly inhibit” in each case. In the series with PEDV [4], the “inhibitory effect, nucleic acid copy numbers vs control group” value is “did not show significant inhibitory effects”. Moreover, the “virus copy numbers vs control group” value in the series on PEDV [6] (12.5 μg/mL) is given as “significantly lower than in the control group”. Also, in the series with PEDV [7], the “green fluorescence of viral proteins (IFA)” value is listed as “diminished to varying extents”. Also, the entries for the “viral mRNA quantitation” value with PEDV [8] (3.13 μg/mL), in the series on PEDV [8] (6.25 μg/mL) and in the series with PEDV [8] (12.5 μg/mL) were 4.79 × 10^6 copies/μL, 3.21 × 10^6 copies/μL and 2.17 × 10^6 copies/μL, respectively.
As for `CC1(C)CC[C@]2(C(=O)O)CC[C@]3(C)C(=CC[C@@H]4[C@@]5(C)CC[C@H](O)C(C)(C)[C@@H]5CC[C@]43C)[C@@H]2C1` [Oleanolic acid, oleanolic acid], the IC50 in the series with PEDV DY [2], with PEDV [10] and with PEDV CV777 [9] was more than 100 µg/mL each time. Further, the CC50 at 48 h in the series “Cytotoxicity assay (MTT)” (setting [14]) was found to be 4.05 ± 3.91 µg/mL (≈ 8.88 µM).
As to `NC(=O)c1ncn([C@@H]2O[C@H](CO)[C@@H](O)[C@H]2O)n1` [Ribavirin, ribavirin, reference compound], the “virus titer vs virus control” value is reported as “significantly lower” in the series with PEDV DY [1] (PEDV DY, 36 h, p < 0.05) and “significantly lower” with PEDV CV777 [5] (PEDV CV777, 36 h, p < 0.05). For the same molecule, the IC50 with PEDV DY [2] worked out at 71.4 ± 3.78 µg/mL (≈ 292 µM); with PEDV CV777 [9], 88 ± 3.78 µg/mL (≈ 360 µM). Also, half-maximal cytotoxicity in “Cytotoxicity assay (MTT)” (CC50 at 48 h) was put at 249 ± 4.2 µg/mL (≈ 1020 µM).
With `O=c1c(O)c(-c2ccc(O)c(O)c2)oc2cc(O)cc(O)c12` [quercetin], the half-maximal inhibitory concentration (IC50) in the series with PEDV [10] was more than 100 µg/mL. In series [12], the CC50 was 217.113 µg/mL (≈ 718 µM). In addition, in the series on DENV-2 [13], the “IC50 against DENV-2” value is 18.41 µg/mL (≈ 60.9 µM).
soy isoflavone returned a CC50 in the series on Vero E6 cells of 53.03 ± 2.30 µg/mL.

Usually IC50 stands for the concentration that gives 50% inhibition. Broadly, the CC50 is the concentration giving 50% cytotoxicity.
